The test system of data set [1] is microbial clusters MY, KR, DN, MC, BL, RM, SP, PA, HR. In words: Broad-spectrum activity score (in-house scoring matrix). The note with it: sum over 9 microbial clusters: (+) = 1, (X) = 0, Fuel x = -1. In outline:
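Each peptide is scored per microbial cluster from its MIC/efficacy with fuel co-incubation: +1 = active in the fuel environment, 0 = no activity in the desired range (microbial proliferation), −1 = no activity in the fuel environment. The score is built from these per-cluster points.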

For data set [2], the system named is Sheep red blood cells (RBCs). As to the kind of experiment: Hemolysis assay. The format is cell-based. How it is done: The RBCs were centrifuged at 1000g for 15 min at 4 °C to remove the buffy coat and washed 3 times with PBS. 100 μL of 4% (v/v) RBC was suspended in PBS and added into sterilized 96-well plates. 100 μL of peptide solution was added to the suspension of RBCs by serial dilution starting from 200 μM to […] and incubated overnight at 37 °C. Sample absorbance at 545 nm was measured to determine hemoglobin release after centrifuging the plate at 600 g for 10 min. The percentage of cell lysis was calculated using the following formula (eq ). , 1 %lysis=OD545(test)−OD545(blank)/OD545(totallysis)−OD545(blank)×100

Data set [3] is described as follows: HPLC retention time as a function of peptide hydrophobicity. The data set is classed as physicochemical. Particulars: chromatographic, Polaris 5 C18-A reverse phase, 0.1% TFA water / 0.1% TFA acetonitrile gradient, 30 min, 300 μM peptide. Summed up: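 Reverse-phase C18 HPLC used water and acetonitrile, each with 0.1% (v/v) TFA, under a constant gradient run for 30 min after injection. Samples were 300 μM peptide in acetonitrile–water (1:4).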

Data set [4] concerns Sphingomonas paucimobilis (SP). The data set is classed as cell-based. In outline:
(§1)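 Overnight LB cultures, 37 °C → mid-log → 5 × 10^5 CFU/mL; 1:1 with serially diluted peptides, o/n 37 °C, ambient air. MIC = lowest conc. inhibiting growth (plate reader). n = 3, mean reported.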

The subject of data set [5] is Micrococcus yunnanensis (MY) ATCC 12698. The format is cell-based. In outline: as §1
Data set [6] deals with Bacillus licheniformis (BL) ATCC 14580. The data set is classed as cell-based. Particulars: ATCC 14580. Summed up:
as §1

Data set [7] deals with Pseudomonas aeruginosa (PA) ATCC 39327. The data set is classed as cell-based. The note with it: ATCC 39327. Summed up:
as §1

The subject of data set [8] is Roseomonas mucosa (RM) ATCC BAA-692. The data set is classed as cell-based. In outline:
as §1

Data set [9] concerns Dermacoccus nishinomiyaensis (DN) ATCC 29093. The format is cell-based. Summed up:
as §1

The test system of data set [10] is Kocuria rosea (KR) ATCC 186. The format is cell-based. Summed up:
as §1

Data set [11] deals with Macrococcus caseolyticus (MC) ATCC 13548. The format is cell-based. Summed up:
as §1

Data set [12] has as its system Sphingomonas paucimobilis (SP). As to the kind of experiment: Effectiveness of peptides on spiked fuel samples (aqueous layer). The data set is classed as cell-based. Details: key: (+) =1 (implying peptide activity in fuel environment); (X) = 0 (implying no activity in the desired range, indicated by microbial proliferation); Fuel x = -1(implying no activity in fuel environment). The note with it: initial screening in spiked fuel. Summed up: (§2)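 Fuel filter-sterilized and mixed 1:1 (v/v) with BH medium; bacteria inoculated into the bottom aqueous phase, with engineered peptides dosed at their respective MICs into the aqueous layer. Incubated aerobically at 30 °C for 30 days; aqueous and fuel layers sampled at 7, 14, 21 and 30 days and plated on LBA for viability.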

The test system of data set [13] is Dermacoccus nishinomiyaensis (DN). The description is as above. The format is cell-based. More on the design: key: (+) =1 (implying peptide activity in fuel environment); (X) = 0 (implying no activity in the desired range, indicated by microbial proliferation); Fuel x = -1(implying no activity in fuel environment). Particulars: initial screening in spiked fuel. In outline:
as §2

For data set [14], the system named is Kocuria rosea (KR). The data set is described as above. The format is cell-based. The note with it: initial screening in spiked fuel. More on the design: key: (+) =1 (implying peptide activity in fuel environment); (X) = 0 (implying no activity in the desired range, indicated by microbial proliferation); Fuel x = -1(implying no activity in fuel environment). Summed up:
as §2

The test system of data set [15] is Bacillus licheniformis (BL). Described as above. The format is cell-based. More on the design: key: (+) =1 (implying peptide activity in fuel environment); (X) = 0 (implying no activity in the desired range, indicated by microbial proliferation); Fuel x = -1(implying no activity in fuel environment). The note with it: initial screening in spiked fuel. Summed up: as §2

Data set [16] relates to Micrococcus yunnanensis (MY). Described as above. Details: key: (+) =1 (implying peptide activity in fuel environment); (X) = 0 (implying no activity in the desired range, indicated by microbial proliferation); Fuel x = -1(implying no activity in fuel environment). The data set is classed as cell-based. The note with it: initial screening in spiked fuel. In outline: as §2
The subject of data set [17] is Hormoconis resinae (HR). Described as above. The format is cell-based. Details: key: (+) =1 (implying peptide activity in fuel environment); (X) = 0 (implying no activity in the desired range, indicated by microbial proliferation); Fuel x = -1(implying no activity in fuel environment). The note with it: initial screening in spiked fuel. In outline:
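Peptides are applied at MIC to the aqueous layer of microbially spiked fuel–BH medium mixtures (1:1 v/v). Incubation runs aerobically at 30 °C for up to 30 days. Growth is tracked by plating samples from both phases on agar at weekly intervals.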

In data set [18] the test system is Macrococcus caseolyticus (MC). The description is as above. The format is cell-based. More on the design: key: (+) =1 (implying peptide activity in fuel environment); (X) = 0 (implying no activity in the desired range, indicated by microbial proliferation); Fuel x = -1(implying no activity in fuel environment). Particulars: initial screening in spiked fuel. Summed up: as §2

Data set [19] concerns Roseomonas mucosa (RM). The data set is described as above. The data set is classed as cell-based. More on the design: key: (+) =1 (implying peptide activity in fuel environment); (X) = 0 (implying no activity in the desired range, indicated by microbial proliferation); Fuel x = -1(implying no activity in fuel environment). Particulars: initial screening in spiked fuel. In outline: as §2

Data set [20] deals with Pseudomonas aeruginosa (PA). The description is as above. The format is cell-based. The note with it: initial screening in spiked fuel. More on the design: key: (+) =1 (implying peptide activity in fuel environment); (X) = 0 (implying no activity in the desired range, indicated by microbial proliferation); Fuel x = -1(implying no activity in fuel environment). In outline: as §2

Where no end group is shown, it is not given here.

As a reminder, the MIC is the lowest concentration that inhibits growth of the organism. Sequence ILPWKWPWWPFRR [P4] came in with a Score in data set [1] of 7. Moreover, the “HL50, conc. to reach 50% cell lysis” value in data set [2] was 10 µM. Moreover, the “R t, retention time of peptide on HPLC column as a function of peptide hydrophobicity” value in [3] is listed as 12.891 min. In addition, the MIC in data set [4] is 0.9 µM; in data set [5] it was 0.9 µM; in [6], 0.9 µM; in [7], 7.8 µM; in data set [8], 3.9 µM; in data set [9], 0.9 µM. Moreover, the MIC in data set [10] and in data set [11] was 0.9 µM each time. The “activity considering MIC value/efficacy upon fuel co-incubation” value in data set [12] is “+”; in data set [13], “+”; in [14], “+”; in data set [15] it was “+”; in [16], “+”; in data set [17] it was “X”. The “activity considering MIC value/efficacy upon fuel co-incubation” value in data set [18] is “+”; in data set [19], “+”; in [20], “X”.

For the origin of these results see article PMC12442081, “Combating Fuel Biocontamination: Tailored Antimicrobial Peptides and an Innovative Delivery Strategy” (ACS Applied Bio Materials, 2025).
